Reference: patent EP0067711A2, “New 1-benzyl-3,4-dihydro-isoquinoline derivative” (CHINOIN Gyogyszer és Vegyészeti Termékek Gyára RT., priority 1981, dated 1982)

Assays:
[1] = test system: acute coronary insufficiency induced by vasopressine; assay: anti-angina activity: inhibition of vasopressine-induced acute coronary insufficiency (rise of T-wave on ECG), method of Papp and Szekeres; format: in vivo, rats belonging to the CFY strain; settings: vasopressine 2 IU/kg i.v., pentobarbital anaesthetized CFY rats; papaverin = 1
[2] = test system: haemodynamic and cardiovascular system; assay: general effects on the haemodynamic and cardiovascular system in pentobarbital anaesthetized dogs; format: in vivo; set-up: A. vertebralis flow, Changed value: unit not given here; settings: 2 mg/kg i.v.
[3] = test system: electric fibrillation threshold of the auricle and ventricle; assay: antiarrhythmial effect: change of electric fibrillation threshold in chloralose-urethane anaesthetized cats; format: in vivo; settings: 2 mg/kg i.v.
Method: The antiarrhythmial effect is determined on chloralose-urethane anaesthetized cats [500/300 mg/kg i.p.] by measuring the changes of the electric fibrillation threshold of the auricle and ventricle respectively [method of Szekeres, Méhes and Papp: Brit. 0. Pharmacol. 17, 167 (1961) and that of Szekeres and Papp: Hdb. exp. Pharmacol. 16/3, 131 (1975) respectively]. The general effects exerted on the haemodynamic and cardiovascular system are tested on pentobarbital anaesthetized dogs (35 mg/kg i.v.).

[4] = acute toxicity on rats; settings: rat, in vivo
Text: (§1) The acute toxicity of the compound of the Formula I is characterized by the data enumerated in Table 3.

[5] = acute toxicity on mice; settings: mouse, in vivo, po
Text: as §1

CCOc1ccc(CC2=NCCc3cc(OCC)c(OCC)cc32)cc1O [Formula I, 6,7-diethoxy-1-(4-ethoxy-3-hydroxy-benzyl)-3,4-dihydro-isoquinoline]
anti-angina activity related to that of papaverin [1]: 1.40 | A. carotis flow, Duration of effect [2]: 7 min | A. carotis flow, Percental difference [2]: +27 | A. carotis resistance, Duration of effect [2]: 7 min | A. carotis resistance, Percental difference [2]: -13 | A. femoralis flow, Duration of effect [2]: 3 min | A. femoralis flow, Percental difference [2]: +44 | A. femoralis resistance, Duration of effect [2]: 3 min | A. femoralis resistance, Percental difference [2]: -45 | A. vertebralis flow, Duration of effect [2]: 2 min | A. vertebralis flow, Percental difference [2]: +51 | A. vertebralis resistance, Duration of effect [2]: 2 min | A. vertebralis resistance, Percental difference [2]: -45 | Arterial blood pressure, Duration of effect [2]: 5 min | Arterial blood pressure, Percental difference [2]: -22 | Contractibility of the left ventricle (dP/dt), Duration of effect [2]: 2 min | Contractibility of the left ventricle (dP/dt), Percental difference [2]: -17 | Coronary flow, Duration of effect [2]: 16 min | Coronary flow, Percental difference [2]: +36 | Coronary resistance, Duration of effect [2]: 15 min | Coronary resistance, Percental difference [2]: -34 | Efficiency of cardial function, Duration of effect [2]: 6 min | Efficiency of cardial function, Percental difference [2]: +45 | Frequence volume, Duration of effect [2]: 35 min | Frequence volume, Percental difference [2]: +60 | Function of the left ventricle, Duration of effect [2]: 7 min | Function of the left ventricle, Percental difference [2]: -20 | Heart frequence/min, Duration of effect [2]: 31 min | Heart frequence/min, Percental difference [2]: -22 | Minute volume, Duration of effect [2]: 4 min | Minute volume, Percental difference [2]: +11 | Myocardial oxygenization (O2 supply per O2 consumption), Duration of effect [2]: 30 min | Myocardial oxygenization (O2 supply per O2 consumption), Percental difference [2]: +74 | Oxygen consumption of the left ventricle, Duration of effect [2]: 22 min | Oxygen consumption of the left ventricle, Percental difference [2]: -29 | Total peripherial resistance, Duration of effect [2]: 5 min | Total peripherial resistance, Percental difference [2]: -23 | Efficiency of cardial function, Changed value ([2]; average ± S.E., basic value 0.11 ± 0.02): 0.16 ± 0.02 mkg/ml/100 g | Coronary resistance, Changed value ([2]; average ± S.E., basic value 1.16 ±0.06): 0.76 ± 0.06 Hgmm/ml/min/100 g | Function of the left ventricle, Changed value ([2]; average ± S.E., basic value 1.24 ± 0.08): 0.99 ± 0.16 mkg/min | Myocardial oxygenization (O2 supply per O2 consumption), Changed value ([2]; average ± S.E., basic value 1.70 ± 0.07): 2.95 ± 0.21 | A. carotis resistance, Changed value ([2]; average ± S.E., basic value 2.33 ± 0.23): 2.02 ± 0.32 Hgmm/ml/min | A. vertebralis resistance, Changed value ([2]; average ± S.E., basic value 3.28 ± 0.33): 1.81 ± 0.17 Hgmm/ml/min | A. femoralis resistance, Changed value ([2]; average ± S.E., basic value 4.84 ± 0.86): 2.66 ± 0.42 Hgmm/ml/min | Frequence volume, Changed value ([2]; average ± S.E., basic value 5.5 ± 0.3): 8.8 ± 0.9 mL | Oxygen consumption of the left ventricle, Changed value ([2]; average ± S.E., basic value 11.6 ± 0.9): 8.2 ± 1.2 ml/min/100 g | A. femoralis flow, Changed value ([2]; average ± S.E., basic value 34 ± 7): 49 ± 10 mL/min | A. vertebralis flow, Changed value ([2]; average ± S.E., basic value 43 ± 6): 65 ± 9 | A. carotis flow, Changed value ([2]; average ± S.E., basic value 70 ± 7): 89 ± 13 mL/min | Coronary flow, Changed value ([2]; average ± S.E., basic value 95 ± 5): 129 ± 9 ml/min/100 g | Arterial blood pressure, Changed value ([2]; average ± S.E., basic value 121 ± 5): 94 ± 4 Hgmm | Heart frequence/min, Changed value ([2]; average ± S.E., basic value 146 ± 8): 114 ± 9 min⁻¹ | Minute volume, Changed value ([2]; average ± S.E., basic value 875 ± 42): 975 ± 34 mL/min | Contractibility of the left ventricle (dP/dt), Changed value ([2]; average ± S.E., basic value 5105 ± 434): 4248 ± 865 Hgmm/sec | Total peripherial resistance, Changed value ([2]; average ± S.E., basic value 10652 ± 991): 8185 ± 748 dyn. sec. cm^-5 | Arterial blood pressure, Duration of effect [3]: 9 min | Arterial blood pressure, Percental difference [3]: -43 | Auricle fibrillation threshold, Duration of effect [3]: 11 min | Auricle fibrillation threshold, Percental difference [3]: +58 | Ventricle fibrillation threshold, Duration of effect [3]: 13 min | Ventricle fibrillation threshold, Percental difference [3]: +25 | Auricle fibrillation threshold, Changed value ([3]; average ± S.E., basic value 0.73 ± 0.10): 1.15 ± 0.11 mA | Ventricle fibrillation threshold, Changed value ([3]; average ± S.E., basic value 2.07 ± 0.10): 2.58 ± 0.09 mA | Arterial blood pressure, Changed value ([3]; average ± S.E., basic value 139 ± 5): 79 ± 8 Hgmm | LD50 ([4]; iv, i.v. on rats ♀): 24.9 mg/kg | LD50 ([4]; iv, i.v. on rats ♂): 23 mg/kg | LD50 ([4]; po, p.o. on rats ♀): 625 mg/kg | LD50 ([4]; po, p.o. on rats ♂): 493 mg/kg | LD50 ([5]; p.o. on mice ♀): 165 mg/kg | LD50 ([5]; p.o. on mice ♂): 269 mg/kg
